Data reported in ChEMBL document CHEMBL1909046, “DrugMatrix in vitro pharmacology data”.

Experiments:
[1] = molecular target: Melanocortin receptor 3 (Homo sapiens, UniProt P41968); assay type: cell membranes, Membrane; details: hek293; note: in other assays of this panel Not Active means under 50% inhibition at 10 µM
[2] = molecular target: T1, Cathepsin G (Homo sapiens, UniProt P08311); assay type: tissue-based; details: neutrophil;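 note: inhibition of Cathepsin G enzyme activity, tested on an AMC-conjugated peptide substrate; in other assays of this panel Not Active means under 50% inhibition at 10 µM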
T1 sequence (P08311 whole entry): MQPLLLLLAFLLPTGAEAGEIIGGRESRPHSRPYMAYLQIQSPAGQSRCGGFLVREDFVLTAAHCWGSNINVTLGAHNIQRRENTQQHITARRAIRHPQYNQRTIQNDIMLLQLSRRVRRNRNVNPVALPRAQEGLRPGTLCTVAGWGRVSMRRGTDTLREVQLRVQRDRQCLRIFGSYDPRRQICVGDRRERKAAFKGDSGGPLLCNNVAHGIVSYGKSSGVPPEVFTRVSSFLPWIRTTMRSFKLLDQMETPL

[3] = molecular target: T2, Cytochrome P450 2A6 (Homo sapiens, UniProt P11509); details: bti-tn-5b1-4; note: in other assays of this panel Not Active means under 50% inhibition at 10 µM
T2 sequence (P11509 whole entry): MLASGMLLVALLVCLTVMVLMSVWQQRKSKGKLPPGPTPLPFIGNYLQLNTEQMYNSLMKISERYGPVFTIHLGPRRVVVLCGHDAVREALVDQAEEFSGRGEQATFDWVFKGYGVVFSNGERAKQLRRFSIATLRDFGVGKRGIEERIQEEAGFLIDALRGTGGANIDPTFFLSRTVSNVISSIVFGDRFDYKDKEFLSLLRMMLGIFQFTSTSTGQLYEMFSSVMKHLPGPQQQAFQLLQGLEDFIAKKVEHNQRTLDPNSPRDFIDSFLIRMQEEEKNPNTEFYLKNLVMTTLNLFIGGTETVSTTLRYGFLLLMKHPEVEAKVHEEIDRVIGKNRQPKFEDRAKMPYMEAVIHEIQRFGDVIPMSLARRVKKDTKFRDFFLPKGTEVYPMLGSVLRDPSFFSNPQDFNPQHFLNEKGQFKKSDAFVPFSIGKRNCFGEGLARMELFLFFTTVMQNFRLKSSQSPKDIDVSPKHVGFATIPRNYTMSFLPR

[4] = molecular target: cGMP-specific 3',5'-cyclic phosphodiesterase (Homo sapiens, UniProt O76074); assay: DRUGMATRIX: Phosphodiesterase PDE5 enzyme inhibition (substrate: [3H]cGMP + cGMP); assay type: tissue-based, Platelet; details: platelet; Not Active = under 50% inhibition at 10 µM
[5] = molecular target: 5-hydroxytryptamine receptor 4 (Cavia porcellus, UniProt O70528); assay type: cell membranes, Dunkin-Hartley, Striatum, Membrane; note: in other assays of this panel Not Active means under 50% inhibition at 10 µM
5-hydroxytryptamine receptor 4, sequence (O70528 whole entry): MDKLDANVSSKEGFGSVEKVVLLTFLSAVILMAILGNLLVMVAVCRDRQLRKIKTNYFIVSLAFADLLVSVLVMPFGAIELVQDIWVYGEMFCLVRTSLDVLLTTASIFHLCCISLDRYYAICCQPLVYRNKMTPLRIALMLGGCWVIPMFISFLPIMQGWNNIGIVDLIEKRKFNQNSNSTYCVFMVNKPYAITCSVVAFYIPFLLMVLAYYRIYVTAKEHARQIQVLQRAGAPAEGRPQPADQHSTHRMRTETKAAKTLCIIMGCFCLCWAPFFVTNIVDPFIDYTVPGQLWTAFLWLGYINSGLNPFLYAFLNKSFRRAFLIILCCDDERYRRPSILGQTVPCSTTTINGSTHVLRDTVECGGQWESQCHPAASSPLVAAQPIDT

[6] = molecular target: T3, Substance-K receptor (Homo sapiens, UniProt P21452); assay type: cell membranes, CHO, Membrane; details: cho; note: in other assays of this panel Not Active means under 50% inhibition at 10 µM
T3 sequence (P21452 whole entry): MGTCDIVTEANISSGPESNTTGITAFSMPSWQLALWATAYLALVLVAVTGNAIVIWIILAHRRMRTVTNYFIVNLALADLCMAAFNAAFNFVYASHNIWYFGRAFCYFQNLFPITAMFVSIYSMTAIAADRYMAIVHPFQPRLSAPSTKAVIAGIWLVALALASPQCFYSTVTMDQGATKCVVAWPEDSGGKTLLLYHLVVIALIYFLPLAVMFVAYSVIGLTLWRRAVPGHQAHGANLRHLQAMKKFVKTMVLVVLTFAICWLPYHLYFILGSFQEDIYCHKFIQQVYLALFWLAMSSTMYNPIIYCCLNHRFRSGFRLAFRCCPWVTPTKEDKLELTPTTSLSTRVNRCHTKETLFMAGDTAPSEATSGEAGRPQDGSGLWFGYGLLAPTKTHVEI

[7] = molecular target: Nitric oxide synthase 1 (Rattus norvegicus, UniProt P29476); assay type: tissue-based, Cerebellum; note: in other assays of this panel Not Active means under 50% inhibition at 10 µM
Nitric oxide synthase 1, sequence (P29476 whole entry): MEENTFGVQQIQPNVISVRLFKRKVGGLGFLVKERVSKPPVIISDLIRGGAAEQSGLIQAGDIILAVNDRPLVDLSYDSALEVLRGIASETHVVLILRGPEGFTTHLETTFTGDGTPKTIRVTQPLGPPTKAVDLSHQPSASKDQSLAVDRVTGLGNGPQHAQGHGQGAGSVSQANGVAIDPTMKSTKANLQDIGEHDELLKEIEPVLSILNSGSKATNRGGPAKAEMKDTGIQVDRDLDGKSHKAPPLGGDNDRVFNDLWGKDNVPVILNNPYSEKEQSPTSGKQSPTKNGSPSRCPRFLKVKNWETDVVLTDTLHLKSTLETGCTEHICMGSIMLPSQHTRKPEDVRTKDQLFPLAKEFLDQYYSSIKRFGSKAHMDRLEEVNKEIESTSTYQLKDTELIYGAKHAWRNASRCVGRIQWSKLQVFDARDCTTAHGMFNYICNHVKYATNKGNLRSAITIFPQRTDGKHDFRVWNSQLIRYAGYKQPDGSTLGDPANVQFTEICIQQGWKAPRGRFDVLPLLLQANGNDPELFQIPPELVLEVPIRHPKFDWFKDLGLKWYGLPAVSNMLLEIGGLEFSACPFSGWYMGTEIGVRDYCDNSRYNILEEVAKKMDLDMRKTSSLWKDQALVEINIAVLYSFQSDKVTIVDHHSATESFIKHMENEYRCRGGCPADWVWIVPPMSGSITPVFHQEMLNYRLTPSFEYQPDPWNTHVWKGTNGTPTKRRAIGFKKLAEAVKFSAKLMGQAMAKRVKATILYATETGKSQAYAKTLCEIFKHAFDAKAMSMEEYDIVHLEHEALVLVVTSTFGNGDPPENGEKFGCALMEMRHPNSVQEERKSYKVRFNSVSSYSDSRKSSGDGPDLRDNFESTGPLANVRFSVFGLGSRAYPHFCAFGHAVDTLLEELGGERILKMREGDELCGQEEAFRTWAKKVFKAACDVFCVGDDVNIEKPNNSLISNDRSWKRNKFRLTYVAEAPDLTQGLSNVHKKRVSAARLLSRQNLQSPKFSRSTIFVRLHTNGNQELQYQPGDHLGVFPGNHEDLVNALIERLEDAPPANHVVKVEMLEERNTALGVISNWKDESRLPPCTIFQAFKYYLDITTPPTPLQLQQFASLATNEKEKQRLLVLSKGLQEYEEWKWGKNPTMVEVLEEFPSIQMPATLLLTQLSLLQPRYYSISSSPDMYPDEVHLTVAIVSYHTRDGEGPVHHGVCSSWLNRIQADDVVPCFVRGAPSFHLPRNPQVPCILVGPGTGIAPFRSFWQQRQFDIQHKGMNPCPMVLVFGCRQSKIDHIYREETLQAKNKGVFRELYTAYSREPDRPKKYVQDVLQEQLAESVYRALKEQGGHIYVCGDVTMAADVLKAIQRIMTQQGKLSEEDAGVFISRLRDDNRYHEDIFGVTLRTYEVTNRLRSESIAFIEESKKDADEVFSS

Melanocortin receptor 3, sequence (P41968 whole entry): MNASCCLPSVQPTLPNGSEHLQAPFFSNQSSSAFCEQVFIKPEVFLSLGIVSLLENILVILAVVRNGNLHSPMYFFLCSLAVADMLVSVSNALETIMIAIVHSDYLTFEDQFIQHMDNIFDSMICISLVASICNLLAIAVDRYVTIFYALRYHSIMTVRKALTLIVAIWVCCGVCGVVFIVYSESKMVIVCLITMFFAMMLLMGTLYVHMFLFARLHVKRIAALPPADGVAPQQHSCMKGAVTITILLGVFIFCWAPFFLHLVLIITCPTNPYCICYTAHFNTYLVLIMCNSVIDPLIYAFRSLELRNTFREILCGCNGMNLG

TRANSPLATIN
Not Active: IC50 [1] | Ki [1] | IC50 [2] | Ki [2] | IC50 [3] | Ki [3] | IC50 [4] | Ki [4] | IC50 [5] | Ki [5] | IC50 [6] | Ki [6] | IC50 [7] | Ki [7]

ZIRCONIUM(IV) CHLORIDE
Not Active: IC50 [1] | Ki [1] | IC50 [2] | Ki [2] | IC50 [3] | Ki [3] | IC50 [4] | Ki [4] | IC50 [5] | Ki [5] | IC50 [6] | Ki [6] | IC50 [7] | Ki [7]
